Measured values taken from publication PMC8642396, “Crystal structure of human METTL6, the m^3C methyltransferase” (Communications Biology, 2021).
Positions count from the first letter of the chain named.

Columns and labels:
Format in all cases: binding
[1] = biological target: T1, hMETTL6 (Homo sapiens, UniProt Q8TCB7); assay: X-ray crystal structure, […] Å; settings: protein mixed with 2 mM SAH; active site; ammonium sulfate, pH 5.6
T1 construct: gene METTL6
T1 sequence (Q8TCB7 1-284): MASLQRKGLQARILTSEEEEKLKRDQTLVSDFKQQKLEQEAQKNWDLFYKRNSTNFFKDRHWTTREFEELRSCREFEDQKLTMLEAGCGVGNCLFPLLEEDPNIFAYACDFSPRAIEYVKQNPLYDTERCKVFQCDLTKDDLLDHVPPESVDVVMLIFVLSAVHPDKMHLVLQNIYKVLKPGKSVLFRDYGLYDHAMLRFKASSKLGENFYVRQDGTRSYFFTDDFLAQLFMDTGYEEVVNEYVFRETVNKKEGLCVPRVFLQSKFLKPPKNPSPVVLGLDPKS

[2] = biological target: T2, hMETTL6 (Homo sapiens, UniProt Q8TCB7, C93S); assay: isothermal titration calorimetry
T2 construct: gene METTL6
T2 sequence (Q8TCB7 1-284 C93S): T1 sequence (Q8TCB7 1-284) with C93S

[3] = biological target: T3, hMETTL6 (Homo sapiens, UniProt Q8TCB7, D110A); assay: isothermal titration calorimetry; settings: pH 8.0, 150 mM NaCl, 1 mM DTT, 25 °C; mutant partly aggregated, structural integrity disrupted
T3 construct: gene METTL6
T3 sequence (Q8TCB7 1-284 D110A): T1 sequence (Q8TCB7 1-284) with D110A

[4] = biological target: T4, hMETTL6 (Homo sapiens, UniProt Q8TCB7, Y49F); assay: isothermal titration calorimetry
T4 construct: gene METTL6
T4 sequence (Q8TCB7 1-284 Y49F): T1 sequence (Q8TCB7 1-284) with Y49F

[5] = biological target: T5, hMETTL6 (Homo sapiens, UniProt Q8TCB7, E85Q); assay: isothermal titration calorimetry
T5 construct: gene METTL6
T5 sequence (Q8TCB7 1-284 E85Q): T1 sequence (Q8TCB7 1-284) with E85Q

[6] = biological target: T6, hMETTL6 (Homo sapiens, UniProt Q8TCB7, F111L); assay: isothermal titration calorimetry
T6 construct: gene METTL6
T6 sequence (Q8TCB7 1-284 F111L): T1 sequence (Q8TCB7 1-284) with F111L

[7] = biological target: T7, hMETTL6 (Homo sapiens, UniProt Q8TCB7, H61N); assay: isothermal titration calorimetry
T7 construct: gene METTL6
T7 sequence (Q8TCB7 1-284 H61N): T1 sequence (Q8TCB7 1-284) with H61N

[8] = biological target: T1, hMETTL6; assay: isothermal titration calorimetry

For `Nc1ncnc2c1ncn2[C@@H]1O[C@H](CSCC[C@H](N)C(=O)O)[C@@H](O)[C@H]1O` [SAH], the “X-ray crystal structure, 1.9 Å” value [1] was “we solved the structure of hMETTL6 in complex with SAH at a high resolution”.

For `C[S+](CC[C@H](N)C(=O)O)C[C@H]1O[C@@H](n2cnc3c(N)ncnc32)[C@H](O)[C@@H]1O` (some centres unmarked) [SAM], the Kd [2] was 2.25 µM, the KD [3] was “the D110A mutation almost eliminated the association capacity of the enzyme” and the Kd [4] was 9.5 µM. For the same compound, the Kd [5] was 87.5 µM, the Kd [6] was 8.05 µM and the Kd [7] was 3.11 µM. It also gave a Kd [8] of about 2.7 µM.
